Laboratory results published in the supplement of paper PMC10307832.

Key:
Test in all cases: relative viability (nuclei count vs DMSO), 5 days (fraction); higher = more cells survive
[1] = compound: CC(O)(CS(=O)(=O)c1ccc(F)cc1)C(=O)Nc1ccc(C#N)c(C(F)(F)F)c1 [Bicalutamide] + Nc1nc2[nH]cc(CCc3ccc(C(=O)N[C@@H](CCC(=O)O)C(=O)O)cc3)c2c(=O)[nH]1 [Pemetrexed] (partner 0.2 µM)
Procedure, shortened: (§1)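 Relative viability was taken as the ratio of nuclei in treated wells to nuclei in vehicle wells. Lung cancer cell lines in 1536-well plates received compounds by pin tool one day after seeding, either one drug alone or a fixed anchor-drug dose plus five library-drug doses (not always all listed) in √10 steps. Nuclei were counted on 4× images after 5 days of treatment, and values are medians of duplicate plates.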

[2] = compound: C(C(=O)C(=O)O)Br [Bromopyruvate] + COc1cccc2cc(-c3nc([C@H]4CC[C@H](C(=O)O)CC4)n4ncnc(N)c34)[nH]c12 [OSI-027] (partner 0.5 µM)
Procedure, shortened: as §1

[3] = compound: CC(O)(CS(=O)(=O)c1ccc(F)cc1)C(=O)Nc1ccc(C#N)c(C(F)(F)F)c1 [Bicalutamide]
Procedure, shortened: (§2)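 Following overnight incubation at 37 °C, lung cancer cell lines in 1536-well plates were pinned with five library-drug doses (not always all listed) in √10 steps on vehicle-anchored plates. The cells then spent 5 days without medium change before a combined fix, permeabilisation and Hoechst stain, 4× imaging and MetaXpress nuclear counts. Viability is the treated-to-vehicle ratio of nuclei, taken as the median across plates. Only plates with control CV below 25% and at least one doubling passed.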

[4] = compound: C(C(=O)C(=O)O)Br [Bromopyruvate]
Procedure, shortened: as §2

PC-14
relative viability ([1]; first compound 0.08 µM): 0.121
relative viability ([1]; first compound 0.253 µM): 0.121
relative viability ([1]; first compound 0.8 µM): 0.119
relative viability ([1]; first compound 2.53 µM): 0.117
relative viability ([2]; first compound 1 µM): 0.788
relative viability ([2]; first compound 3.162 µM): 0.837
relative viability ([2]; first compound 10 µM): 1.37
relative viability ([2]; first compound 31.62 µM): 0.825
relative viability ([2]; first compound 100 µM): 0.841
relative viability ([3]; 0.08 µM): 1.02
relative viability ([3]; 0.253 µM): 1.01
relative viability ([3]; 0.8 µM): 1.15
relative viability ([3]; 2.53 µM): 0.976
relative viability ([4]; 1 µM): 1.05
relative viability ([4]; 3.162 µM): 1.07
relative viability ([4]; 10 µM): 1.09
relative viability ([4]; 31.62 µM): 0.997
relative viability ([4]; 100 µM): 0.943

RERF-LC-KJ
relative viability ([1]; first compound 0.08 µM): 0.471
relative viability ([1]; first compound 0.253 µM): 0.457
relative viability ([1]; first compound 0.8 µM): 0.517
relative viability ([1]; first compound 2.53 µM): 0.492
relative viability ([2]; first compound 1 µM): 0.614
relative viability ([2]; first compound 3.162 µM): 0.607
relative viability ([2]; first compound 10 µM): 0.6
relative viability ([2]; first compound 31.62 µM): 0.516
relative viability ([2]; first compound 100 µM): 0.54
relative viability ([3]; 0.08 µM): 1.01
relative viability ([3]; 0.253 µM): 0.985
relative viability ([3]; 0.8 µM): 1.15
relative viability ([3]; 2.53 µM): 0.982
relative viability ([4]; 1 µM): 1.04
relative viability ([4]; 3.162 µM): 1.02
relative viability ([4]; 10 µM): 1.13
relative viability ([4]; 31.62 µM): 1.02
relative viability ([4]; 100 µM): 0.98

SK-LU-1
relative viability ([1]; first compound 0.08 µM): 1.03
relative viability ([1]; first compound 0.253 µM): 1.02
relative viability ([1]; first compound 0.8 µM): 1.19
relative viability ([1]; first compound 2.53 µM): 0.928
relative viability ([2]; first compound 1 µM): 0.378
relative viability ([2]; first compound 3.162 µM): 0.316
relative viability ([2]; first compound 10 µM): 0.303
relative viability ([2]; first compound 31.62 µM): 0.317
relative viability ([2]; first compound 100 µM): 0.305
relative viability ([3]; 0.08 µM): 1.11
relative viability ([3]; 0.253 µM): 1.02
relative viability ([3]; 0.8 µM): 1.23
relative viability ([3]; 2.53 µM): 1.02
relative viability ([4]; 1 µM): 1.07
relative viability ([4]; 3.162 µM): 0.93
relative viability ([4]; 10 µM): 1.2
relative viability ([4]; 31.62 µM): 0.935
relative viability ([4]; 100 µM): 0.943
